Test results as given in patent publication US20230346735A1, “Nutritional Composition Comprising Carnitine and Method for Treating or Preventing an Infection in a Mammal” (priority 2020, published 2023).
Entries after “also recorded” stand apart in the source; their conditions may differ.

Key:
ACE-2 = ACE-2 surface protein in Calu-3 cells, flow cytometry; format: cell-based, human; details: Calu-3, 100 uM, 24-hr pre-treatment
Description: ACE-2 surface expression protein in Calu-3 cells was evaluated using FACS flow cytometry sorting. […] Cells were detached with PBS/EDTA at room temperature. FBS-containing growth media was added to cells to inactivate TE. Cells were spun for 5 min at […]. Supernatant was removed and cells were washed twice in flow buffer (PBS+0.2% FBS). Between 100,000-200,000 cells were stained for ACE-2 and BST2 (absent in Calu-3and used as a control) for 30 min on ice using goat anti-ACE-2 (R&D Systems; AF933) and PE-conjugated BST2 (BioLegend; Cat # 348406). Cells were washed once and stained with Alexa Fluor 647 donkey anti-goat for 30 min on ice. Cells were washed once, resuspended in PBS/EDTA and samples were acquired on a FACS LSR Fortessa cytometer (BD Bioscience). Data were analyzed using Flowjo (Version 10.1).
The testing was repeated with D-Carnitine as well. Cells were either stained for ACE2 using either anti-ACE2 Ab, anti-BST2 Ab or the combination or both followed by secondary Ab isotype. […] The table represents the fluorescence counts.

ACE-1 = assay: Human study, serum ELISA, ACE-1; format: in vivo; details: 2 g daily L-carnitine tartrate, 5 weeks, before or after exercise challenge
Description: A human study was run with a total of 80 healthy male and female subjects ranging from 21 to 65 years of age, who were active (i.e. 30 minutes per day of moderate activity, 3 days per week) are randomized into two groups. […] Seventy-three subjects completed the trial and biomarker data were analyzed from the sera of the 73 completers. Sera were collected for analysis of C-Reactive Protein (CRP), ACE 1, ACE 2, TMPRSS 2, the Tumor Necrosis Factor alpha (TNF-alpha), and Furin at baseline in the beginning of the trial, at week 5 and 48 hr after an exercise challenge as described (Clinicaltrials.gov NCT04420377). The exercise challenge serves as surrogate to the inflammation stimulus.
To obtain human sera, venous blood was extracted by venipuncture of the antecubital vein using a 21-gauge syringe and collected into a 10 mL EDTA vacutainer tube (BD Vacutainer®, Becton, Dickinson and Company, Franklin Lakes, NJ) by a certified phlebotomist. […] Human ACE-1, ACE-2, TMPRSS2, Furin, CRP and TNF-alpha protein levels were assessed using commercially available ELISA kits, according the manufacturer recommendations, ACE-1 (R&D systems Inc., Minneapolis, MN, USA), ACE-2 (RayBiotech inc., Peachtree Corners, GA), TMPRSS2 (Novus Biologicals, Littleton, CO), CRP (R&D Systems Inc., Minneapolis, MN), TNF-alpha (Novus Biologicals, Littleton, CO), and Furin (Sigma Aldrich, St. Louis, MO). […]

C[N+](C)(C)C[C@H](O)CC(=O)[O-] [L-carnitine]
decrease in the ACE-2 protein at the cell surface (ACE-2): about 75%
ACE-1 serum levels (ACE-1): no significant effect; also recorded: no significant interaction or main effect
